By EC50 is commonly meant the concentration giving half of the maximal effect. What is called pIC50 is the IC50 on a negative log10 scale, so that one unit is a factor of ten. The pKi is the Ki on a negative log10 scale, so that one unit is a factor of ten.

This is an account of results in ChEMBL document CHEMBL3045128, “Borrelidin, a potent antifungal agent: insight into the antifungal mechanism against Phytophthora sojae” (J Agric Food Chem, 2012).

One experiment deals with Pythium. Description: Antifungal activity against Pythium species. The experiment is classed as functional, organism-based.
The target in experiment [1] is T1, Threonyl-tRNA synthase (Phytophthora sojae) (UniProt G3FIN0).
T1 sequence (whole entry): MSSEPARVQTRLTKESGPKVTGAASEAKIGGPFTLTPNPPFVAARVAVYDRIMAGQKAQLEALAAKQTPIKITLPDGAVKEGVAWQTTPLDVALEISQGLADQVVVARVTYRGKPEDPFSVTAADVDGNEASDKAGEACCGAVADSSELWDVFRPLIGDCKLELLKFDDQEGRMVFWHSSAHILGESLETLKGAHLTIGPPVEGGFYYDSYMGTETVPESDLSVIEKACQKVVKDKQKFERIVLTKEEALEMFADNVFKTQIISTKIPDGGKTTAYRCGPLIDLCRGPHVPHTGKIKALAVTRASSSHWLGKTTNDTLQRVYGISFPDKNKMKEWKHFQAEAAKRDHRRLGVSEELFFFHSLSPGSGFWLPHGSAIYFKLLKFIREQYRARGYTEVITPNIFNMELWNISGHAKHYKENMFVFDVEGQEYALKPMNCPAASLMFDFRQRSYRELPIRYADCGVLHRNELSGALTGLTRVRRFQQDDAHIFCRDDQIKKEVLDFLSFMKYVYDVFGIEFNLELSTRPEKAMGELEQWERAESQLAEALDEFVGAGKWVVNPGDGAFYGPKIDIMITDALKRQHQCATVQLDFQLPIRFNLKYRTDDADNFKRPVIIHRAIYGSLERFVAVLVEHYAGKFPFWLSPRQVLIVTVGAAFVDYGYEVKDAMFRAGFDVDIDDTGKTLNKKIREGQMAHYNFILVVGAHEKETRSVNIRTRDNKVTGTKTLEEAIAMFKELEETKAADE
Description: Binding affinity to C-terminal His6-tagged Phytophthora sojae race 1 recombinant ThrRS expressed in Escherichia coli BL21 (Codonplus DE3) assessed as decrease in beta sheet content of the protein at protein to compound ratio of 1:5 by CD spectroscopy (reference value: 25.6%). Also on record: scale not given: the % may be the effect or the level left.

Experiment [2] concerns the target T1, Threonyl-tRNA synthase (Phytophthora sojae). In words: Binding affinity to C-terminal His6-tagged Phytophthora sojae race 1 recombinant ThrRS expressed in Escherichia coli BL21 (Codonplus DE3) assessed as decrease in beta sheet content of the protein at protein to compound ratio of 1:1 by CD spectroscopy (reference value: 25.6%). Also on record: scale not given: the % may be the effect or the level left.

Experiment [3] shares this target. In words: Binding affinity to C-terminal His6-tagged Phytophthora sojae race 1 recombinant ThrRS expressed in Escherichia coli BL21 (Codonplus DE3) assessed as increase in alpha helicity of the protein at protein to compound ratio of 1:5 by CD spectroscopy (reference value: 18.3%).
For experiment [4] the target is unchanged. In words: Binding affinity to C-terminal His6-tagged Phytophthora sojae race 1 recombinant ThrRS expressed in Escherichia coli BL21 (Codonplus DE3) assessed as increase in alpha helicity of the protein at protein to compound ratio of 1:1 by CD spectroscopy (reference value: 18.3%).
Experiment [5] shares this target. In words: Binding affinity to C-terminal His6-tagged Phytophthora sojae race 1 recombinant ThrRS expressed in Escherichia coli BL21 (Codonplus DE3) assessed as static fluorescence quenching by FRET analysis.
Experiment [6] has the same target. In words: Binding affinity to C-terminal His6-tagged Phytophthora sojae race 1 recombinant ThrRS expressed in Escherichia coli BL21 (Codonplus DE3) assessed as positive entropy and enthalpy changes by themodynamic analysis.
For experiment [7] the target is unchanged. In words: Binding affinity to C-terminal His6-tagged Phytophthora sojae race 1 recombinant ThrRS expressed in Escherichia coli BL21 (Codonplus DE3) assessed as equilibrium binding constant by fluorescence spectroscopy.
The target is the same in experiment [8]. In words: Binding affinity to C-terminal His6-tagged Phytophthora sojae race 1 recombinant ThrRS expressed in Escherichia coli BL21 (Codonplus DE3) assessed as quenching rate constant at 47 degC by fluorescence spectroscopy.
Experiment [9] shares this target. In words: Binding affinity to C-terminal His6-tagged Phytophthora sojae race 1 recombinant ThrRS expressed in Escherichia coli BL21 (Codonplus DE3) assessed as quenching rate constant at 37 degC by fluorescence spectroscopy.
For experiment [10] the target is unchanged. In words: Binding affinity to C-terminal His6-tagged Phytophthora sojae race 1 recombinant ThrRS expressed in Escherichia coli BL21 (Codonplus DE3) assessed as quenching rate constant at 27 degC by fluorescence spectroscopy.
The target is the same in experiment [11]. Description: Binding affinity to C-terminal His6-tagged Phytophthora sojae race 1 recombinant ThrRS expressed in Escherichia coli BL21 (Codonplus DE3) assessed as Stern-Volmer quenching constant at 47 degC by fluorescence spectroscopy.
Experiment [12] has the same target. In words: Binding affinity to C-terminal His6-tagged Phytophthora sojae race 1 recombinant ThrRS expressed in Escherichia coli BL21 (Codonplus DE3) assessed as Stern-Volmer quenching constant at 37 degC by fluorescence spectroscopy.
For experiment [13] the target is unchanged. Description: Binding affinity to C-terminal His6-tagged Phytophthora sojae race 1 recombinant ThrRS expressed in Escherichia coli BL21 (Codonplus DE3) assessed as Stern-Volmer quenching constant at 27 degC by fluorescence spectroscopy.
Experiment [14] shares this target. In words: Binding affinity to C-terminal His6-tagged Phytophthora sojae race 1 recombinant ThrRS expressed in Escherichia coli BL21 (Codonplus DE3) at 20 to 200 uM at 27 to 47 degC after 30 min by fluorescence quenching assay.
The target in the next experiment is T2, Threonyl-tRNA synthase (Phytophthora sojae, UniProt G3FIN0).
T2 sequence (G3FIN0 whole entry): T1 sequence (whole entry)
In words: Inhibition of C-terminal His6-tagged Phytophthora sojae race 1 recombinant ThrRS expressed in Escherichia coli BL21 (Codonplus DE3) assessed as reduction in initial velocity at the step of threonine activation preincubated for 10 min with 4 uM enzyme before threonine addition measured after 30 min by HPLC analysis.

The subject of experiment [15] is Phytophthora sojae. In words: Antifungal activity against Phytophthora sojae race 1 assessed as radial growth inhibition at 0.008 ug/ml incubated at 28 degC in the dark for 6 to 8 days in presence of 0.2 to 0.6 mM L-aspargine. The experiment is classed as functional, organism-based.
In experiment [16] the test system is Phytophthora sojae. Description: Antifungal activity against Phytophthora sojae race 1 assessed as radial growth inhibition at 0.008 ug/ml incubated at 28 degC in the dark for 6 to 8 days in presence of 0.2 to 0.6 mM tyrosine. The experiment is classed as functional, organism-based.
The subject of experiment [17] is Phytophthora sojae. Description: Antifungal activity against Phytophthora sojae race 1 assessed as radial growth inhibition at 0.008 ug/ml incubated at 28 degC in the dark for 6 to 8 days in presence of 0.2 to 0.6 mM glutamine. The experiment is classed as functional, organism-based.
Experiment [18] deals with Phytophthora sojae. In words: Antifungal activity against Phytophthora sojae race 1 assessed as radial growth inhibition at 0.008 ug/ml incubated at 28 degC in the dark for 6 to 8 days in presence of 0.2 to 0.6 mM alanine. The experiment is classed as functional, organism-based.
Experiment [19] deals with Phytophthora sojae. Description: Antifungal activity against Phytophthora sojae race 1 assessed as radial growth inhibition at 0.006 ug/ml incubated at 28 degC in the dark for 6 to 8 days in presence of 0.6 mM threonine. The experiment is classed as functional, organism-based.

pIC50, pKi: −log10 of the molar value. Converted amounts (≈) assume the structure as drawn. The source made the active and inactive calls. The rule behind the calls is not given here.

In turn, `C[C@@H]1C[C@H](C)C[C@H](C)[C@@H](O)CC(=O)O[C@H]([C@@H]2CCC[C@H]2C(=O)O)C/C=C/C=C(/C#N)[C@H](O)[C@@H](C)C1` [BORRELIDIN] returned an EC50 with Pythium of 0.01 µg/mL (≈ 0.0204 µM). For the same molecule, the Activity in experiment [1] was 21.8%; in experiment [2], 22.4%; in experiment [3], 25.7%; in experiment [4] it was 24.4%. The result in experiment [5], in [6] and in experiment [14] was Active. In addition, the KA in experiment [7] was 2.55 ×10⁵ /M. Also, the values for the Kq in experiment [8], in experiment [9] and in [10] were 1.23 ×10¹² L/mol/s, 1.33 ×10¹² L/mol/s and 1.54 ×10¹² L/mol/s, respectively. The results for the KSV in experiment [11], in [12] and in experiment [13] were 1.23 ×10⁴ /M, 1.33 ×10⁴ /M and 1.54 ×10⁴ /M, respectively. Moreover, the pIC50 at Threonyl-tRNA synthase was 5.10. Moreover, the pKi on Threonyl-tRNA synthase (read-out: Ki(app)) is 5.00. The “growth inhibition (GI)” value in the experiment on Phytophthora sojae [15], with Phytophthora sojae [16], with Phytophthora sojae [17] and in the experiment with Phytophthora sojae [18] was “Active” each time. Moreover, the “growth inhibition (GI)” value with Phytophthora sojae [19] was “inactive”.
